Measurements reported in publication PMC8318231, “Rate-of-Kill (RoK) assays to triage large compound sets for Chagas disease drug discovery: Application to GSK Chagas Box” (PLoS Neglected Tropical Diseases, 2021).

Legend:
[1] = test system: T. cruzi intracellular amastigotes in H9c2 cells; assay: Rate-of-Kill (RoK) high-content imaging assay, amastigotes per cell (AM/CELL) and curve descriptors; type: cell-based, Trypanosoma cruzi; set-up: key to ME_24h / ME_48h / ME_72h: % reduction in parasite burden (cidal response); t50pct_MCC50 / t50pct_Cmax: unit not given here; details: for ME_24h: 24h; for ME_48h: 48h; for ME_72h: 72h; for tlag_Cmax / t50pct_Cmax / t50%_Cmax: at Cmax; for ME_24h (%): maximum effect at 24 h; for ME_24h (%) / ME_48h (%) / ME_72h (%): RoK assay; for ME_48h (%): maximum effect at 48 h; for ME_72h (%): maximum effect at 72 h; for ME 24h (maximum effect at 24 hours, intracellular amastigotes): maximum percentage of parasite burden reduction reached by any concentration
How it was run: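 Readouts at each time point are amastigotes per cell and host nuclei count (cytotoxicity), from DRAQ5 high-content imaging. Infection: trypomastigotes on H9c2 at MOI 8 for 18 h. Dosing was 5 μM single point or 11 points, 1/3 steps from 50 μM. Effect scaled between 4 h infected and uninfected controls.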

[2] = test system: T. cruzi Tulahuen trypomastigotes; assay: T. cruzi trypomastigote assay (Cell Titer-Glo viability, ATP luminescence); type: cell-based, Trypanosoma cruzi; details: for Trypomastigotes pIC50 48 hours: 48 hours incubation; for Trypomastigotes pIC50 48 hours / Trypomastigotes pIC50 72 hours: pIC50 = -log10 IC50 in molar units; for Trypomastigotes pIC50 72 hours: 72 hours incubation; for 72 pIC50 (trypomastigotes, raw data of Fig 1D): 72 hours, plotted values, censored values given without sign; for 48 pIC50 / 72 pIC50: trypomastigote assay; for 48 pIC50: 48 h; for 72 pIC50: 72 h
How it was run: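 Compounds were tested in dose response or once at a final 5 μM against 5 × 10^4 trypomastigotes per well (DMEM, 2% FBS), collected on days 5–8 from LLC-MK2 infected cultures. ATP luminescence via CellTiter-Glo reports live parasites; DMSO defines 0% and cell-free wells 100% effect.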

[3] = test system: TcCYP51; details: formerly reported; cited from earlier work

| SMILES | ME_24h ([1]; figure 5) | ME_48h ([1]; figure 5) | ME_72h ([1]; figure 5) | MCCE ([1]; RoK curve descriptor) | AM/CELL NORM ([1]; Time 4, sheet figure 4 A) | AM/CELL NORM ([1]; Time 24, sheet figure 4 A) | AM/CELL NORM ([1]; Time 48, sheet figure 4 A) | tlag_Cmax [1] | t50pct_Cmax ([1]; figure 5) | tlag_Cmax ([1]; figure 5) | t50pct_MCC50 ([1]; at MCC50, figure 5) | tlag_MCC50 ([1]; at MCC50, figure 5) | MCCE ([1]; figure 5) | ME_24h (%) [1] | ME_48h (%) [1] | ME_72h (%) [1] | ME 24h (maximum effect at 24 hours, intracellular amastigotes) [1] | Trypomastigotes pIC50 48 hours [2] | Trypomastigotes pIC50 72 hours [2] | CYP51 pIC50 [3] | further results |
| --- | --- | --- | --- | --- | --- | --- | --- | --- | --- | --- | --- | --- | --- | --- | --- | --- | --- | --- | --- | --- | --- |
| COc1cc(-c2nc(N3CCOCC3)sc2-c2ccnc(NC3CCOCC3)n2)ccc1Cl.O=C(O)C(F)(F)F [TCMDC-143414] | -30.3967 | 4.32 | 10.4319 | 0.34 µM | -8.885 | -7.51 | 27.1663 | 14.0 h | 72 | 14 | 72 | 72 | 0.3429 | -30.4% | 4.3% | 10.4% | -7.51% | < 4.3 | < 4.3 | < 4 | AM/CELL NORM ([1]; Time 72, sheet figure 4 A): 39.4258; MCC50 ([1]; figure 5): 50 µM; 72 pIC50 (trypomastigotes, raw data of Fig 1D) [2]: < 4.3; 48 pIC50 ([2]; figure 1A): < 4.3; 72 pIC50 ([2]; figure 1A): < 4.3; 72 pIC50 ([2]; figure 1B): < 4.3 |
| CC(=Cc1ccccc1)CN1CCC(=O)N(Cc2cccnc2)CC1 [TCMDC-143421] | -70.7645 | -276.175 | -1.901 | 1.9 µM | -0.3924 | -98.2079 | -300.018 | 48.0 h | 72 | 48 | 72 | 72 | 1.852 | -70.8% | -276.2% | -1.9% | -70.7645% | 4.7 | < 4.3 | 7 | AM/CELL NORM ([1]; Time 72, sheet figure 4 A): -16.9527; MCC50 ([1]; figure 5): 50 µM |
| CC(C)Oc1cccc(N2CCC(C(=O)N3CCCN(C(C)C)CC3)CC2)c1.Cl [TCMDC-143432] | -31.9347 | 48.3783 | 79.9841 | 1.2 µM | -8.446 | -20.4309 | 59.253 | 24.0 h | 60 | 24 | 72 | 24 | 1.235 | -31.9% | 48.4% | 80.0% | -15.8852% | < 4.3 | < 4.3 | < 4 | MCC50 ([1]; RoK curve descriptor): 1.9 µM; AM/CELL NORM ([1]; Time 72, sheet figure 4 A): 56.8532; t50%_Cmax [1]: 60.0 h; t50%_MCC50 ([1]; at MCC50): 72.0 h; tlag_MCC50 ([1]; at MCC50): 24.0 h; MCC50 ([1]; figure 5, in µM): 1.852; 72 pIC50 (trypomastigotes, raw data of Fig 1D) [2]: < 4.3; 48 pIC50 ([2]; figure 1A): < 4.3; 72 pIC50 ([2]; figure 1A): < 4.3; 72 pIC50 ([2]; figure 1B): < 4.3 |
| CCN(Cc1ccncc1)Cc1ccc(NC(=O)c2cc(-c3ccc(F)cc3)n[nH]2)cc1 [TCMDC-143433] | -248.551 | -140.579 | 30.4902 | 0.2 µM | 7.09 | -279.989 | -140.579 | 24.0 h | 72 | 24 | 72 | 72 | 0.2058 | -248.6% | -140.6% | 30.5% | -248.551% | 4.9 | 4.5 | 7.1 | AM/CELL NORM ([1]; Time 72, sheet figure 4 A): 25.9601; MCC50 ([1]; figure 5): 50 µM |
| COc1cccc(CCNC(=O)C(c2cn[nH]c2)N2CCN(c3ccc(Cl)cc3)CC2)c1 (stereo not drawn) [TCMDC-143434] | 51.5158 | 102.276 | 117.751 | 0.07 µM | 2.576 | 51.5158 | 102.276 | 4.0 h | 24 | 4 | 72 | 24 | 0.06859 | 51.5% | 102.3% | 117.8% | 51.5158% | 4.4 | 4.5 | 7.2 | MCC50 ([1]; RoK curve descriptor): 5.6 µM; AM/CELL NORM ([1]; Time 72, sheet figure 4 A): 117.751; t50%_Cmax [1]: 24.0 h; t50%_MCC50 ([1]; at MCC50): 72.0 h; tlag_MCC50 ([1]; at MCC50): 24.0 h; MCC50 ([1]; figure 5, in µM): 5.556 |
| CC(C)c1cc(C(=O)N2CCCC(c3cc4ncccc4[nH]3)C2)on1 (stereo not drawn) [TCMDC-143439] | 43.352 | 76.8723 | 68.3635 | 1.0 µM | 3.622 | 43.352 | 76.8723 | 4.0 h | 48 | 4 | 48 | 4 | 1.852 | 63.1% | 82.0% | 79.3% | 82.7741% | 5.3 | 5.3 | 4.3 | MCC50 ([1]; RoK curve descriptor): 16.7 µM; AM/CELL NORM ([1]; Time 72, sheet figure 4 A): 68.3635; t50%_Cmax [1]: 48.0 h; t50%_MCC50 ([1]; at MCC50): 60.0 h; tlag_MCC50 ([1]; at MCC50): 14.0 h; MCC50 ([1]; figure 5, in µM): 16.6667; 72 pIC50 (trypomastigotes, raw data of Fig 1D) [2]: 5.3; 48 pIC50 ([2]; figure 1A): 5.3; 72 pIC50 ([2]; figure 1A): 5.3; 72 pIC50 ([2]; figure 1B): 5.3 |
| Fc1ccc(OC2CC(NCc3cccc4cn[nH]c34)C2)cc1C(F)(F)F (stereo not drawn) [TCMDC-143455] | 25.577 | 44.8387 | 61.893 | 0.2 µM | – | – | – | 24.0 h | 72 | 24 | 72 | 24 | 0.2058 | 25.6% | 44.8% | 61.9% | 107.523% | 5 | 5 | 6.9 | MCC50 ([1]; RoK curve descriptor): 5.6 µM; AM/CELL NORM ([1]; Time 4, figure 4 A): 30.3216; AM/CELL NORM ([1]; Time 24, figure 4 A): 25.577; AM/CELL NORM ([1]; Time 48, figure 4 A): 44.8387; AM/CELL NORM ([1]; Time 72, figure 4 A): 61.893; t50%_Cmax [1]: 72.0 h; t50%_MCC50 ([1]; at MCC50): 72.0 h; tlag_MCC50 ([1]; at MCC50): 24.0 h; MCC50 ([1]; figure 5, in µM): 5.556; 72 pIC50 (trypomastigotes, raw data of Fig 1D) [2]: 5; 48 pIC50 ([2]; figure 1A): 5; 72 pIC50 ([2]; figure 1A): 5; 72 pIC50 ([2]; figure 1B): 5 |
| CNc1c(C(N)=O)c(-c2ccc3scnc3c2)nn1CC(F)(F)F.O=C(O)C(F)(F)F [TCMDC-143463] | -5.4236 | -24.264 | 4.63 | 0.2 µM | 20.0861 | -5.743 | -19.2942 | 48.0 h | 72 | 48 | 72 | 72 | 0.2058 | -5.4% | -24.3% | 4.6% | -5.104% | < 4.3 | < 4.3 | < 4 | AM/CELL NORM ([1]; Time 72, sheet figure 4 A): 13.2045; MCC50 ([1]; figure 5): 50 µM; 72 pIC50 (trypomastigotes, raw data of Fig 1D) [2]: < 4.3; 48 pIC50 ([2]; figure 1A): < 4.3; 72 pIC50 ([2]; figure 1A): < 4.3; 72 pIC50 ([2]; figure 1B): < 4.3 |
| OCCCNc1nc(Nc2ccncc2)nc2ccccc12 [TCMDC-143476] | -15.4195 | -2.754 | -23.113 | 0.6 µM | -9.731 | -26.5514 | -22.3232 | 24.0 h | 72 | 24 | 72 | 72 | 0.6173 | -15.4% | -2.8% | -23.1% | -15.4195% | 5.3 | 5.6 | < 4 | AM/CELL NORM ([1]; Time 72, sheet figure 4 A): -41.9873; MCC50 ([1]; figure 5): 50 µM |
